Assay results reported in patent US20230081390A1, “INHIBITORS OF RAF KINASES” (Kinnate Biopharma Inc., priority 2019, published 2023).

Legend:
human RAF1 = human RAF1 (Homo sapiens, UniProt P04049); test: Protein kinase assay (33P-ATP filter binding), human RAF1, 10-dose IC50; assay type: biochemical; details: MEK1 (K97R) substrate 3 micromolar, ATP 10 micromolar, read-out: RAF-1 IC50
In short: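 Radiometric filter-binding format: 10 µM ATP, 3 µM MEK1 (K97R) as substrate for human RAF1, 2 hr at room temperature in 20 mM HEPES pH 7.5 with 10 mM MgCl2. Compounds were dispensed acoustically from DMSO. IC50 came from percent kinase activity relative to vehicle over a 10-dose series.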

human BRAF = human BRAF (Homo sapiens, UniProt P15056); test: Protein kinase assay (33P-ATP filter binding), human BRAF, 10-dose IC50; assay type: biochemical; details: MEK1 (K97R) substrate 1 micromolar, ATP 25 micromolar, read-out: B-RAF IC50
human BRAF, sequence (P15056 whole entry): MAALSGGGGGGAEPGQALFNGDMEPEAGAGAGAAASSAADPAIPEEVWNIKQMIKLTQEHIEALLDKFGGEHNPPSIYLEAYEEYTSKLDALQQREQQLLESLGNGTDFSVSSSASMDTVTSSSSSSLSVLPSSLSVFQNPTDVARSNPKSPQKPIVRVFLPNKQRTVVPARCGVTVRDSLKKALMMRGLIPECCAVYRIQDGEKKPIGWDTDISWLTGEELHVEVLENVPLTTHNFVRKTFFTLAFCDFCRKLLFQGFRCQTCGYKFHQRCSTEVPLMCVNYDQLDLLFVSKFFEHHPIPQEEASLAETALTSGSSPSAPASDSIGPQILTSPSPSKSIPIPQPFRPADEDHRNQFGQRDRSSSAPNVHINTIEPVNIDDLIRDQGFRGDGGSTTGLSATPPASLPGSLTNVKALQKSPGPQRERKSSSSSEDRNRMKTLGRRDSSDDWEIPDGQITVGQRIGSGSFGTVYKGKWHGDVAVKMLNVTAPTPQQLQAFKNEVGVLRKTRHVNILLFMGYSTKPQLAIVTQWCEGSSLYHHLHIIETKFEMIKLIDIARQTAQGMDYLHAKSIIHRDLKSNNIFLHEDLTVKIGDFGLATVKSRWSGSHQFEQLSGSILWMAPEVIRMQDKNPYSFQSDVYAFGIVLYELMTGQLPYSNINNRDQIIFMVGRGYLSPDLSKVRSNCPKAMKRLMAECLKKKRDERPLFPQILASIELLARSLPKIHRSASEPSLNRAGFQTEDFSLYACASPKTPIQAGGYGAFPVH
Procedure: Protein kinase assay: Assay platform was used to measure kinase/inhibitor interactions as described previously (Anastassiadis et al., 2011). In brief, for each reaction, kinase and substrate were mixed in a buffer containing 20 mM HEPES (pH 7.5), 10 mM MgCl2, 1 mM EGTA, 0.02% Brij35, 0.02 mg/mL BSA, 0.1 mM Na3VO4, 2 mM DTT, and […]. All compounds were solubilized in DMSO. Compounds were then added to each reaction mixture via acoustic dispense using an ECHO 550 nanoliter dispenser. For human RAF1 testing, human MEK1 (K97R) was used as a substrate at a concentration of 3 micromolar, with a final ATP concentration of 10 micromolar. For human BRAF testing, human MEK1 (K97R) was used as a substrate at 1 micromolar concentration, with a final ATP concentration of 25 micromolar. […] After a 20-min incubation, ATP (Sigma-Aldrich, St. Louis, Mo. 63178) and [g33P] ATP (specific activity 10 microCi/microliter) purchased at PerkinElmer (Boston, Mass., 02118 Cat #BLU 003H250UC) were added at a final total concentration of […]. Reactions were carried out at room temperature for 2 hr and spotted onto P81 ion exchange cellulose chromatography paper (Reaction Biology). Filter paper was washed in 0.75% phosphoric acid to remove unincorporated ATP. The percent remaining kinase activity relative to a vehicle-containing (DMSO) kinase reaction was calculated for each kinase/inhibitor pair. IC50 values were calculated using Prism 5 (GraphPad).

human RAF1, sequence (P04049 whole entry): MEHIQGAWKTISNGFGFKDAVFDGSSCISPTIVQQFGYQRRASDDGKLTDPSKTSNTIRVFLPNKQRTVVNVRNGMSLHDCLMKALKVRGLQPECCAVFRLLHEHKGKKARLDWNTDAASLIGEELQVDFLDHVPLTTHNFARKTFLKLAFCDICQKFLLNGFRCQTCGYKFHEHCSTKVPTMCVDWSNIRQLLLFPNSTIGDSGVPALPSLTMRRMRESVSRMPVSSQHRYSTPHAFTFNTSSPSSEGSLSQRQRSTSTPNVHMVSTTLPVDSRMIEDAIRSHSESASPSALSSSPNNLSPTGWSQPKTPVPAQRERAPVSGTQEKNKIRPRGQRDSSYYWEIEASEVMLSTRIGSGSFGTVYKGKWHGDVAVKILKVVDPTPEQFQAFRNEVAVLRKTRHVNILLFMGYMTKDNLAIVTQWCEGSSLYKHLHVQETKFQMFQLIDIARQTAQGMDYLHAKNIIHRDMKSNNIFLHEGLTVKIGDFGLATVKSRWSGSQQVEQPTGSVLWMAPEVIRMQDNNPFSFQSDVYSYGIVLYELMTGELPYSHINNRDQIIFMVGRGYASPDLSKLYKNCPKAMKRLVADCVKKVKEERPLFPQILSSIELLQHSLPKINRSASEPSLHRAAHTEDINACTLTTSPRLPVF

IC50 (human RAF1)	IC50 (human BRAF)	SMILES
< 10 nM	10 to 100 nM	Cc1cc(F)c(NC(=O)N2CCOC(C(C)(C)C)C2)cc1-c1cc(OCCO)nc(N2CCOCC2)c1 (stereo not drawn) [Example 9, 2-(tert-butyl)-N-(2-fluoro-5-(2-(2-hydroxyethoxy)-6-morpholinopyridin-4-yl)-4-methylphenyl)morpholine-4-carboxamide]
< 10 nM	10 to 100 nM	Cc1cc(F)c(NC(=O)N2CC[C@H](C(F)(F)F)C2)cc1-c1cc(OCCO)nc(N2CCOCC2)c1 [Example 2, (S)-N-(2-fluoro-5-(2-(2-hydroxyethoxy)-6-morpholinopyridin-4-yl)-4-methylphenyl)-3-(trifluoromethyl)pyrrolidine-1-carboxamide]
< 10 nM	10 to 100 nM	Cc1cc(F)c(NC(=O)N2CC[C@@H](C(F)(F)F)C2)cc1-c1cc(OCCO)nc(N2CCOCC2)c1 [Example 1, (R)-N-(2-fluoro-5-(2-(2-hydroxyethoxy)-6-morpholinopyridin-4-yl)-4-methylphenyl)-3-(trifluoromethyl)pyrrolidine-1-carboxamide]
< 10 nM	10 to 100 nM	Cc1cc(F)c(NC(=O)NCCC(C)(C)C)cc1-c1cc(OCCO)nc(N2CCOCC2)c1 [Example 6, 1-(3,3-dimethylbutyl)-3-(2-fluoro-5-(2-(2-hydroxyethoxy)-6-morpholinopyridin-4-yl)-4-methylphenyl)urea]
< 10 nM		Cc1ccc(NC(=O)N2CC=C(CC(F)(F)F)C2)cc1-c1cc(OC[C@@H](C)O)nc(N2CCOCC2)c1 [Example 222, (R)-N-(3-(2-(2-hydroxypropoxy)-6-morpholinopyridin-4-yl)-4-methylphenyl)-3-(2,2,2-trifluoroethyl)-2,5-dihydro-1H-pyrrole-1-carboxamide]
< 10 nM		Cc1cc(F)c(NC(=O)N2CCC3(CCCC3)C2)cc1-c1cc(OCCO)nc(N2CCOCC2)c1 [Example 73, N-(2-fluoro-5-(2-(2-hydroxyethoxy)-6-morpholinopyridin-4-yl)-4-methylphenyl)-2-azaspiro[4.4]nonane-2-carboxamide]
10 to 100 nM		Cc1cc(F)c(NC(=O)N2CCCC(F)(F)C2)cc1-c1cc(OCCO)nc(N2CCOCC2)c1 [Example 24, 3,3-difluroo-N-(2-fluoro-5-(2-(2-hydroxyethoxy)-6-morpholinopyridin-4-yl)-4-methylphenyl)piperidine-1-carboxamide]
< 10 nM		Cc1ccc(NC(=O)N2CCC(CC(F)(F)F)C2)cc1-c1cc(O[C@@H]2CCOC2)nc(N2CCOCC2)c1 (stereo partly drawn) [Example 200, N-(4-methyl-3-(2-morpholino-6-(((R)-tetrahydrofuran-3-yl)oxy)pyridin-4-yl)phenyl)-3-(2,2,2-trifluoroethyl)pyrrolidine-1-carboxamide]
< 10 nM		Cc1cc(F)c(NC(=O)N2C[C@H](N)C[C@H](C(F)(F)F)C2)cc1-c1cc(OCCO)nc(N2CCOCC2)c1 [Example 55, (3R,5S)-3-amino-N-[2-fluoro-5-[2-(2-hydroxyethoxy)-6-(morpholin-4-yl)pyridin-4-yl]-4-methylphenyl]-5-(trifluoromethyl)piperidine-1-carboxamide]
< 10 nM		Cc1cc(F)c(NC(=O)N2C[C@H](C(F)(F)F)C[C@@H]2C)cc1-c1cc(OCCO)nc(N2CCOCC2)c1 (single isomer, unassigned) [Example 60, (cis)-N-[2-fluoro-5-[2-(2-hydroxyethoxy)-6-(morpholin-4-yl)pyridin-4-yl]-4-methylphenyl]-2-methyl-4-(trifluoromethyl)pyrrolidine-1-carboxamide]
100 to 1000 nM		Cc1cc(F)c(NC(=O)N2CCC3C2C3C(F)(F)F)cc1-c1cc(OCCO)nc(N2CCOCC2)c1 (single isomer, unassigned) [Example 71, N-[2-fluoro-5-[2-(2-hydroxyethoxy)-6-(morpholin-4-yl)pyridin-4-yl]-4-methylphenyl]-6-(trifluoromethyl)-2-azabicyclo[3.1.0]hexane-2-carboxamide]
< 10 nM		Cc1cc(F)c(NC(=O)N2CCC3(CC3)C2)cc1-c1cc(OCCO)nc(N2CCOCC2)c1 [Example 18, N-[2-fluoro-5-[2-(2-hydroxyethoxy)-6-(morpholin-4-yl)pyridin-4-yl]-4-methylphenyl]-5-azaspiro[2.4]heptane-5-carboxamide]
< 10 nM		Cc1cc(F)c(NC(=O)NCC2(C(F)(F)F)CCC2)cc1-c1cc(OCCO)nc(N2CCOCC2)c1 [Example 49, 1-[2-fluoro-5-[2-(2-hydroxyethoxy)-6-(morpholin-4-yl)pyridin-4-yl]-4-methylphenyl]-3-[[1-(trifluoromethyl)cyclobutyl]methyl]urea]
< 10 nM		Cc1ccc(NC(=O)N2CC[C@@H](CC(F)(F)F)C2)cc1-c1cc(OC2(CO)CC2)nc(N2CCOCC2)c1 [Example 231, (S)-N-(3-(2-(1-(hydroxymethyl)cyclopropoxy)-6-morpholinopyridin-4-yl)-4-methylphenyl)-3-(2,2,2-trifluoroethyl)pyrrolidine-1-carboxamide]
< 10 nM		Cc1cc(F)c(NC(=O)N2CCC(C(O)C(F)(F)F)C2)cc1-c1cc(OCCO)nc(N2CCOCC2)c1 (stereo not drawn) [Example 76, N-[2-fluoro-5-[2-(2-hydroxyethoxy)-6-(morpholin-4-yl)pyridin-4-yl]-4-methylphenyl]-3-(2,2,2-trifluoro-1-hydroxyethyl)pyrrolidine-1-carboxamide]
< 10 nM		Cc1ccc(NC(=O)N2CC[C@H](OC(F)(F)F)C2)cc1-c1cc(OC(C)CO)nc(N2CCOCC2)c1 (stereo in doubt) [Example 153, (3S)-N-[3-(2-[[(2R)-1-hydroxypropan-2-yl]oxy]-6-(morpholin-4-yl)pyridin-4-yl)-4-methylphenyl]-3-(trifluoromethoxy)pyrrolidine-1-carboxamide]
< 10 nM		Cc1ncc(NC(=O)N2CC[C@@H](C(F)(F)F)C2)cc1-c1cnc(OCCO)c(N2CCOCC2)c1 (single isomer, unassigned) [Example 16]
< 10 nM		Cc1ccc(NC(=O)N2CC[C@H](C(F)(F)F)C2)cc1-c1cnc(OC2CCOCC2)c(N2CCOCC2)c1 (single isomer, unassigned) [Example 120]
< 10 nM		Cc1ccc(NC(=O)N(C)c2cnn(C(F)(F)F)c2)cc1-c1cc(OC[C@@H](C)O)nc(N2CCOCC2)c1 [Example 156, 1-(3-[2-[(2R)-2-hydroxypropoxy]-6-(morpholin-4-yl)pyridin-4-yl]-4-methylphenyl)-3-methyl-3-[1-(trifluoromethyl)pyrazol-4-yl]urea]
< 10 nM		Cc1ccc(NC(=O)N2CC[C@@H](CC(F)(F)F)C2)cc1-c1cc(OC2CNC2)nc(N2CCOCC2)c1 [Example 204, (S)-N-(3-(2-(azetidin-3-yloxy)-6-morpholinopyridin-4-yl)-4-methylphenyl)-3-(2,2,2-trifluoroethyl)pyrrolidine-1-carboxamide]
< 10 nM		Cc1ccc(NC(=O)N2CC[C@H](OC(F)(F)F)C2)cc1-c1cc(OC[C@@H](C)O)nc(N2CCOCC2)c1 [Example 155, (3S)-N-(3-[2-[(2R)-2-hydroxypropoxy]-6-(morpholin-4-yl)pyridin-4-yl]-4-methylphenyl)-3-(trifluoromethoxy)pyrrolidine-1-carboxamide]
< 10 nM		Cc1ccc(NC(=O)N2CC[C@@H](OC(F)(F)F)C2)cc1-c1cc(OC[C@H](C)O)nc(N2CCOCC2)c1 [Example 213, (3R)-N-(3-[2-[(2S)-2-hydroxypropoxy]-6-(morpholin-4-yl)pyridin-4-yl]-4-methylphenyl)-3-(trifluoromethoxy)pyrrolidine-1-carboxamide]
10 to 100 nM		Cc1cc(F)c(NC(=O)N2CCCC3(COC3)C2)cc1-c1cc(OCCO)nc(N2CCOCC2)c1 [Example 27, N-[2-fluoro-5-[2-(2-hydroxyethoxy)-6-(morpholin-4-yl)pyridin-4-yl]-4-methylphenyl]-2-oxa-6-azaspiro[3.5]nonane-6-carboxamide]
< 10 nM		Cc1cc(F)c(NC(=O)N2CCCC3C2C3C(F)(F)F)cc1-c1cc(OCCO)nc(N2CCOCC2)c1 (single isomer, unassigned) [Example 109, N-[2-fluoro-5-[2-(2-hydroxyethoxy)-6-(morpholin-4-yl)pyridin-4-yl]-4-methylphenyl]-7-(trifluoromethyl)-2-azabicyclo[4.1.0]heptane-2-carboxamide]
< 10 nM		Cc1ccc(NC(=O)N2CC[C@@H](OC(F)(F)F)C2)cc1-c1cc(OC2CNC2)nc(N2CCOCC2)c1 [Example 205, (R)-N-(3-(2-(azetidin-3-yloxy)-6-morpholinopyridin-4-yl)-4-methylphenyl)-3-(trifluoromethoxy)pyrrolidine-1-carboxamide]
< 10 nM		Cc1ccc(NC(=O)N2CCC(CC(F)(F)F)C2)cc1-c1cc(O[C@@H]2CCNC2)nc(N2CCOCC2)c1 (stereo partly drawn) [Example 203, N-(4-methyl-3-(2-morpholino-6-((R)-pyrrolidin-3-yloxy)pyridin-4-yl)phenyl)-3-(2,2,2-trifluoroethyl)pyrrolidine-1-carboxamide]
